Laboratory results taken from PubChem BioAssay AID2060620 (Molecular Pharmacology Branch, DTP, NCI, 2025).

Tested on: 328373-195-R-J1-PDC complex spheroids, viability % test/control
Test: Anticancer human tumor 328373-195-R-J1-PDC patient-derived head and neck squamous carcinoma cell line growth inhibition [CLK]
Conditions: for IC50: curve of first compound; for viability, T/C: stronger effect = lower value
Outline: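 Multi-cell-type spheroids combined patient-derived tumor cells with HUVEC endothelial cells and human mesenchymal stem cells. Paired agents were dosed in half-log steps down from about clinical Cmax, or from 10 microM where Cmax was unknown.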

[1] = second compound 0.0316 µM, first compound 0.0316 µM
[2] = second compound 0.0316 µM, first compound 0.1 µM
[3] = second compound 0.1 µM, first compound 0.0316 µM
[4] = second compound 0.1 µM, first compound 0.1 µM
[5] = second compound 0.316 µM, first compound 0.0316 µM
[6] = second compound 0.316 µM, first compound 0.1 µM
[7] = second compound 1 µM, first compound 0.0316 µM
[8] = second compound 1 µM, first compound 0.1 µM
[9] = second compound 3.16 µM, first compound 0.0316 µM
[10] = second compound 3.16 µM, first compound 0.1 µM
[11] = second compound 10 µM, first compound 0.0316 µM
[12] = second compound 10 µM, first compound 0.1 µM
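Note: spheroids exposed to the agents for 7 days.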

## Cn1ncnc1[C@H]1c2n[nH]c(=O)c3cc(F)cc(c23)N[C@@H]1c1ccc(F)cc1 + CNC(=O)c1ccc(Nc2nc(OC3CCCC3)c3c(-c4ccc5nc(C)oc5c4)c[nH]c3n2)c(OC)c1
Second compound 0.0316 µM
  IC50: 40.6 nM
Second compound 0.1 µM
  IC50: < 0.316 nM
Second compound 0.316 µM
  IC50: < 0.316 nM
Second compound 1 µM
  IC50: < 0.316 nM
Second compound 3.16 µM
  IC50: < 0.316 nM
Second compound 10 µM
  IC50: < 0.316 nM
Second compound 0.0316 µM, first compound 0.000316 µM
  viability, T/C: 51.9%
Second compound 0.0316 µM, first compound 0.001 µM
  viability, T/C: 51.6%
Second compound 0.0316 µM, first compound 0.00316 µM
  viability, T/C: 47.8%
Second compound 0.0316 µM, first compound 0.01 µM
  viability, T/C: 66.8%
[1]
  viability, T/C: 51.7%
[2]
  viability, T/C: 40.6%
Second compound 0.1 µM, first compound 0.000316 µM
  viability, T/C: 9.58%
Second compound 0.1 µM, first compound 0.001 µM
  viability, T/C: 9.68%
Second compound 0.1 µM, first compound 0.00316 µM
  viability, T/C: 9.49%
Second compound 0.1 µM, first compound 0.01 µM
  viability, T/C: 11.1%
[3]
  viability, T/C: 9.25%
[4]
  viability, T/C: 12.2%
Second compound 0.316 µM, first compound 0.000316 µM
  viability, T/C: 9.25%
Second compound 0.316 µM, first compound 0.001 µM
  viability, T/C: 10.3%
Second compound 0.316 µM, first compound 0.00316 µM
  viability, T/C: 8.72%
Second compound 0.316 µM, first compound 0.01 µM
  viability, T/C: 10.3%
[5]
  viability, T/C: 9.93%
[6]
  viability, T/C: 10.4%
Second compound 1 µM, first compound 0.000316 µM
  viability, T/C: 9.2%
Second compound 1 µM, first compound 0.001 µM
  viability, T/C: 9.13%
Second compound 1 µM, first compound 0.00316 µM
  viability, T/C: 9.32%
Second compound 1 µM, first compound 0.01 µM
  viability, T/C: 11.8%
[7]
  viability, T/C: 9.07%
[8]
  viability, T/C: 8.36%
Second compound 3.16 µM, first compound 0.000316 µM
  viability, T/C: 9.59%
Second compound 3.16 µM, first compound 0.001 µM
  viability, T/C: 9.4%
Second compound 3.16 µM, first compound 0.00316 µM
  viability, T/C: 9.78%
Second compound 3.16 µM, first compound 0.01 µM
  viability, T/C: 10%
[9]
  viability, T/C: 11%
[10]
  viability, T/C: 9.49%
Second compound 10 µM, first compound 0.000316 µM
  viability, T/C: 11.2%
Second compound 10 µM, first compound 0.001 µM
  viability, T/C: 11.1%
Second compound 10 µM, first compound 0.00316 µM
  viability, T/C: 8.71%
Second compound 10 µM, first compound 0.01 µM
  viability, T/C: 11.8%
[11]
  viability, T/C: 12.4%
[12]
  viability, T/C: 8.72%

## O=C(c1cc(Cc2n[nH]c(=O)c3ccccc23)ccc1F)N1CCN(C(=O)C2CC2)CC1 + CNC(=O)c1ccc(Nc2nc(OC3CCCC3)c3c(-c4ccc5nc(C)oc5c4)c[nH]c3n2)c(OC)c1
Second compound 0.0316 µM
  IC50: > 10000 nM
Second compound 0.1 µM
  IC50: < 31.6 nM
Second compound 0.316 µM
  IC50: < 31.6 nM
Second compound 1 µM
  IC50: < 31.6 nM
Second compound 3.16 µM
  IC50: < 31.6 nM
Second compound 10 µM
  IC50: < 31.6 nM
[1]
  viability, T/C: 69.1%
[2]
  viability, T/C: 62.5%
Second compound 0.0316 µM, first compound 0.316 µM
  viability, T/C: 62.2%
Second compound 0.0316 µM, first compound 1 µM
  viability, T/C: 59.1%
Second compound 0.0316 µM, first compound 3.16 µM
  viability, T/C: 70.7%
Second compound 0.0316 µM, first compound 10 µM
  viability, T/C: 52.3%
[3]
  viability, T/C: 13.8%
[4]
  viability, T/C: 13.1%
Second compound 0.1 µM, first compound 0.316 µM
  viability, T/C: 9.71%
Second compound 0.1 µM, first compound 1 µM
  viability, T/C: 12.3%
Second compound 0.1 µM, first compound 3.16 µM
  viability, T/C: 13.5%
Second compound 0.1 µM, first compound 10 µM
  viability, T/C: 11.3%
[5]
  viability, T/C: 10.8%
[6]
  viability, T/C: 11.1%
Second compound 0.316 µM, first compound 0.316 µM
  viability, T/C: 11.7%
Second compound 0.316 µM, first compound 1 µM
  viability, T/C: 9.06%
Second compound 0.316 µM, first compound 3.16 µM
  viability, T/C: 11.2%
Second compound 0.316 µM, first compound 10 µM
  viability, T/C: 10.3%
[7]
  viability, T/C: 10.3%
[8]
  viability, T/C: 10%
Second compound 1 µM, first compound 0.316 µM
  viability, T/C: 9.23%
Second compound 1 µM, first compound 1 µM
  viability, T/C: 12%
Second compound 1 µM, first compound 3.16 µM
  viability, T/C: 12.6%
Second compound 1 µM, first compound 10 µM
  viability, T/C: 9.55%
[9]
  viability, T/C: 11.4%
[10]
  viability, T/C: 11.2%
Second compound 3.16 µM, first compound 0.316 µM
  viability, T/C: 10%
Second compound 3.16 µM, first compound 1 µM
  viability, T/C: 11.5%
Second compound 3.16 µM, first compound 3.16 µM
  viability, T/C: 14.2%
Second compound 3.16 µM, first compound 10 µM
  viability, T/C: 9.92%
[11]
  viability, T/C: 11.5%
[12]
  viability, T/C: 13.2%
Second compound 10 µM, first compound 0.316 µM
  viability, T/C: 13.2%
Second compound 10 µM, first compound 1 µM
  viability, T/C: 9.97%
Second compound 10 µM, first compound 3.16 µM
  viability, T/C: 15.8%
Second compound 10 µM, first compound 10 µM
  viability, T/C: 12.4%
